Where a SMILES comes first, the peptide text is derived from it. Bridges are numbered along the chain shown (N, C = ends). Where no end group is shown, it is not given here.
Tests used:
[1] = test system: Plasmodium gallinaceum sporozoites; details: cited from earlier work; for Antiplasmodial activity against P. gallinaceum sporozoites, linear peptides: ref 12 (Silva et al.)
From the text: Silva et al.[12], tested several linear Ang II derivative peptides in vitro using both the P. gallinaceum sporozoite and the P. falciparum blood stage models. Two short peptides presented high antiplasmodial activity: YHPF and VIPF presented 89% and 94% activity against P. gallinaceum, respectively, and ~50% activity against erythrocyte invasion by P. falciparum. […] Analog 4 was designed via the removal of these two residues. Silva et al., studied linear peptides and observed that peptide DRVYHIPF had potent biological activity (94% against P. gallinaceum sporozoites). The sequence of peptide 1 is similar to that of Ang II, whereas peptide 2 presents a sequence that resembles Ang II with modifications in His and Ile residues (DRVYHIPF). Peptide 4, on the other hand, lacks Ile and His amino acid residues within its backbone. […] Peptide sequence CDRVCYIHPF[7] presented 76% (±3) antiplasmodial activity vs sporozoites of P. gallinaceum. Silva et al., studied different linear Ang II derivative peptides[12] and observed that when His and Ile residues are inverted, the antiplasmodial activity increased cf. peptides with the native primary sequence. To verify this observation, here we inverted the position of Ile and His residues in peptide 3. The resulting peptide presented increased antiplasmodial ...

Plasmodium = details: cited from earlier work; for Biological activity (antiplasmodial): ref 4 (Maciel et al.); for Antiplasmodial activity relative to Ang II (in words): lactam bridge analogs, ref 6 (Torres et al.)
From the text: Three of these analogs (i.e., EDRKVYI ...

Plasmodium falciparum [2] = assay: Erythrocytic invasion assay (new ring formation) and IC50 determination; format: cell-based; details: 10^−8 mol L^−1 peptide, 24 h, W2 strain, 2–3% parasitemia, 5% hematocrit; reduction versus untreated control, normalized
Protocol: The effect of peptides in the P. falciparum erythrocytic cycle was assayed in vitro against a synchronized culture in the schizont form of P. falciparum, maintaining 5% hematocrit and 2% parasitemia. Twenty-four hours after treatment, all peptides reduced new ring formation within erythrocytes at 10^−8 mol L^−1, which was described by Saraiva et al. as the ideal concentration for these inhibition assays. The tests were carried out in duplicate and a total of ten experiments were performed (n = 10). Data were normalized due to differences between controls from each assay. It was observed that three analogs reduced the number of rings formed in the blood stage, but only analogs 1 and 2 presented inhibition >40%, when compared to the untreated controls (Fig. 2B).
The erythrocytic cycle of Plasmodium falciparum was maintained in vitro by culturing W2 strains in 1640 medium, supplemented with A-type human blood and serum, as described by Saraiva et al.[15] […]
To synchronize the parasite cultures into the ring stage, we used a sorbitol solution (5%) according to Lambros and Vanderberg[28]. […] Invasion was evaluated by the appearance of new ring forms. The invasion percentage was determined by optical microscopy (1000x magnification), which represents the total number of cells infected by rings in 100 erythrocytes in at least ten random microscopic fields. […]

Plasmodium falciparum [3] = details: ref 12 (Silva et al.); cited from earlier work
From the text: Table 1 Design of angiotensin II-derived synthetic peptides. Purity of peptides determined by LC/MS is shown, along with their respective antiplasmodial activity and design rationale. | column: Antiplasmodial activity vs P. falciparum (new ring formation%) || Silva et al.[12], tested several linear Ang II derivative peptides in vitro using both the P. gallinaceum sporozoite and the P. falciparum blood stage models. Two short peptides presented high antiplasmodial activity: YHPF and VIPF presented 89% and 94% activity against P. gallinaceum, respectively, and ~50% activity against erythrocyte invasion by P. falciparum. […] The authors observed that Ang II reduced by 47% reinfection caused by ring forms. Silva and colleagues tested linear Ang II derivatives using the same model and observed that two short peptides were capable of reducing parasite reinfection >50%[12]. In this work, we tested designer peptides using the P. falciparum erythrocytic cycle and observed that two peptides (1 and 2) were able to reduce ... || (+ 1 further places)

stomach fundus = test system: stomach fundus; parameters: species or system C57BL/6 J mice; details: pH 7.4
Protocol: The bioassay experiment was carried out in duplicate and generated equivalent results. Experiments were carried out using C57BL/6 J mice from the Centro de Desenvolvimento de Modelos Experimentais da Universidade Federal de São Paulo (CEDEME-UNIFESP).
Stomach fundus was isolated from each mouse, divided into two strips along the longitudinal muscle, and mounted into 5 mL organ baths containing modified Krebs-Ringer solution [144 mmol L^–1 NaCl, 5 mmol L^–1 KCl, 1.1 mmol L^–1 MgSO4, 25 mmol L^–1 NaHCO3, 1.1 mmol L^–1 NaH2PO4, 1.25 mmol L^–1 CaCl2, and 5.5 mmol L^–1 glucose at 37 °C (pH 7.4)] and were continuously carboxygenated (95% O2/5% CO2)[29]. Contractile responses to the stimulations with Ang II and analogs 1 and 2 (10^–8 mol L^–1) were measured with a TRI201 tension transducer (PanLab) through an amplifier (Powerlab 4/30). Data were collected through Labchart Pro V7 software. The resting tension was maintained at 0.5 g and the tissues were left to equilibrate for 90 min. The bath solution was frequently changed. The maximal effect was obtained by comparing contractile responses induced by carbachol (10^–8 mol L^–1).

human red blood cells = format: cell-based; details: for Hemolysis of red blood cells: red cells of human, 24 h, 1e-8 mol L^−1
Protocol: Assessing toxicity is a key requirement for translating novel compounds into the clinic. Therefore, we evaluated the hemolytic activity of Ang II peptide derivatives 1 and 2 towards erythrocyte human cells. Erythrocytes were seeded in 96-well plates in the absence (negative control) or presence of 10^−8 mol L^−1 of the analogs, as described in the Methods Section.
Figure 3 Hemolytic assay of human red blood cells. Red blood cells were treated with distilled water which causes lysis of red blood cells; uninfected erythrocytes were kept in the same conditions used in the invasion assay with a control and each peptide tested (10^−8 mol L^−1), at 37 °C for 24 h. After incubation, the supernatant was collected, clarified at 900 g/8 min and the hemoglobin content was detected in a spectrophotometer at […]. **** denotes statistical significance of group compared with distilled water value p < 0.05.
The hemolytic effect of analogs 1 and 2 was determined in uninfected erythrocytes. Cells were maintained in the same culture conditions in the presence of 10^−8 mol L^−1 of peptides for 24 h. Erythrocytes were centrifuged at 900 g for 8 min. The free hemoglobin in the supernatant was monitored by spectrophotometer at 550 nm. Untreated cells were used as negative control to rule out nonspecific hemolysis. The hemolytic activity was expressed as a percentage of the control. This positive control (100% hemolysis) was prepared by treating the erythrocytes with distilled water.

[4] = test system: Plasmodium gallinaceum sporozoites; assay: Effect of peptides on salivary gland-derived sporozoites (membrane permeability, propidium iodide fluorescence microscopy); format: cell-based; details: digitonin 40 μmol L–1 in PBS
Protocol: The effect of the peptides on sporozoites was determined in vitro by fluorescence microscopy. Briefly, the parasites were incubated for one hour in the presence of each peptide and the fluorophore propidium iodide, which stains dead and dying cells. The results are reported as the percent of fluorescent (i.e., inactivated) sporozoites. The analyses were carried out in triplicate, using three different mosquito batches (n = 9).
Aedes aegypti RED strain was used in experiments due to their hypersensitivity to P. gallinaceum parasite. Mosquitoes were reared using standard laboratory procedures. An aliquot of frozen chicken blood infected with the P. gallinaceum strain 8 A was obtained from A Krettli (René Rachou Institute of Research, FIOCRUZ, MG, Brazil). […]
Nine thousand P. gallinaceum mature sporozoites were pulled from the salivary glands of A. aegypti and incubated in 50 μL of PBS solution, with 40 μmol L^–1 digitonin (positive control), 60 μmol L^–1 peptides or negative control (PBS solution), at 37 °C for one hour. Cell membrane integrity was then observed using a Carl Zeiss inverted fluorescence microscope (model Observer Axio Vision A.1) coupled to an image capture Zeiss AxioCam HR digital camera (1,300 × 1,030 pixels resolution and 8-bit quantization) after addition of 1 μL of the propidium iodide aqueous solution (200 μmol L^–1) in 5 μL of total solution volume. […]

DRVYHIPF [linear Ang II derivative of Silva et al., linear counterpart of peptide 2]
Antiplasmodial activity against P. gallinaceum sporozoites, linear peptides [1]: 94%

DRDVKYIHPF (also: sidechain bridge or staple (positions not given here)) [VC-5, restricted (lactam bridge) Ang II analog of Maciel et al]
Biological activity (antiplasmodial) (Plasmodium): 78%

CVIPFC (disulfide 1-6 (inferred)) [Peptide 8]
Antiplasmodial activity vs P. falciparum (new ring formation%) (Plasmodium falciparum [2]): 3.5%

DDRKVYIHPF [VC-4, linear Ang II analog of Maciel et al]
Biological activity (antiplasmodial) (Plasmodium): 64%

YHPF [short linear Ang II derivative of Silva et al]
Activity against erythrocyte invasion by P. falciparum, linear peptides (Plasmodium falciparum [3]): ~ 50%
Antiplasmodial activity against P. gallinaceum sporozoites, linear peptides [1]: 89%

VIPF [short linear Ang II derivative of Silva et al]
Activity against erythrocyte invasion by P. falciparum, linear peptides (Plasmodium falciparum [3]): ~ 50%
Antiplasmodial activity against P. gallinaceum sporozoites, linear peptides [1]: 94%

EDRKVYIHPF (also: sidechain bridge or staple (positions not given here)) [lactam bridge Ang II analog of Torres et al]
Antiplasmodial activity relative to Ang II (in words) (Plasmodium): maintained the antiplasmodial activity of Ang II

CDRVCYIHPF (disulfide 1-5 (inferred)) [S-S restricted Ang II analog of Torres et al]
Antiplasmodial activity vs sporozoites of P. gallinaceum, S-S restricted analog ([1]; ref 7 (Torres et al.)): 76%

EDRVOYIHPF (sidechain bridge or staple) [lactam bridge Ang II analog of Torres et al]
Antiplasmodial activity relative to Ang II (in words) (Plasmodium): maintained the antiplasmodial activity of Ang II

CC[C@H](C)[C@@H]1NC(=O)[C@H](Cc2c[nH]cn2)NC(=O)[C@H](Cc2ccc(O)cc2)NC(=O)[C@H](C(C)C)NC(=O)[C@H](CCCNC(=N)N)NC(=O)[C@H](CC(=O)O)NC(=O)[C@@H](N)CSSC[C@@H](C(=O)O)NC(=O)[C@H](Cc2ccccc2)NC(=O)[C@@H]2CCCN2C1=O [Peptide 2] (H-CDRVYHIPFC-OH; disulfide 1-10)
Contractile response / vasoconstriction (in words) (stomach fundus): complete suppression of vasoconstriction
Hemolytic effect (in words) (human red blood cells): did not present hemolytic effects
Hemolysis of red blood cells (human red blood cells): < 6%

C[C@@H]1CC[C@@]2(OC1)O[C@H]1[C@@H](O)[C@H]3[C@@H]4CC[C@H]5C[C@@H](O[C@@H]6O[C@H](CO)[C@H](O[C@@H]7O[C@H](CO)[C@@H](O)[C@H](O[C@@H]8OC[C@@H](O)[C@H](O)[C@H]8O)[C@H]7O[C@@H]7O[C@H](CO)[C@H](O)[C@H](O[C@@H]8O[C@H](CO)[C@@H](O)[C@H](O)[C@H]8O)[C@H]7O)[C@H](O)[C@H]6O)[C@H](O)C[C@]5(C)[C@H]4CC[C@]3(C)[C@H]1[C@@H]2C [digitonin]
Lysis of parasite membranes by the positive control [4]: 100%

CC[C@H](C)[C@@H]1NC(=O)[C@H](Cc2ccc(O)cc2)NC(=O)[C@H](C(C)C)NC(=O)[C@H](CCCNC(=N)N)NC(=O)[C@H](CC(=O)O)NC(=O)[C@@H](N)CSSC[C@@H](C(=O)O)NC(=O)[C@H](Cc2ccccc2)NC(=O)[C@@H]2CCCN2C(=O)[C@H](Cc2c[nH]cn2)NC1=O [Peptide 1] (H-CDRVYIHPFC-OH; disulfide 1-10)
Contractile response / vasoconstriction (in words) (stomach fundus): complete suppression of vasoconstriction
Hemolytic effect (in words) (human red blood cells): did not present hemolytic effects
Hemolysis of red blood cells (human red blood cells): < 6%

Reference: publication PMC5662717, “Angiotensin II-derived constrained peptides with antiplasmodial activity and suppressed vasoconstriction” (Scientific Reports, 2017)
